From patent US9833433B1, “Compositions, methods of use, and methods of treatment” (priority 2013, dated 2017)

Tests used:
EAAT1, EAAT2, and EAAT3 = assay: Hippocampal expression of glutamate transporters (immunoblot); details: Δ^9-THC 10 mg/kg once a day for 7 days
hippocampal LTD = assay: Hippocampal LTD induced by low-frequency stimulation at CA3-CA1 synapses; format: in vivo; details: single injection 10 mg/kg i.p.; LTD recorded 24 hrs later; WT mice P12 to P17
Excerpt: Field EPSP (fEPSP) recordings both at CA3-CA1 and perforant path synapses in response to stimuli at a frequency of 0.05 Hz were made using an Axoclamp-2B patch-clamp amplifier (Molecular Devices, CA) in bridge mode. Recording pipettes were pulled from borosilicate glass with a micropipette puller (Sutter Instrument), filled with artificial ACSF (2-4 MΩ). Hippocampal LTP at CA3-CA1 and perforant path synapses was induced by a theta-burst stimulation (TBS), consisting of a series of 10 bursts of 5 stimuli at 100 Hz (200 ms interburst interval, which was repeated three time (Fan et al., 2010; Hoffman et al., 2007; Chen et al., 2012). The input-output function was tested before recording of LTP, and the baseline stimulation strength was set to provide fEPSP with an amplitude of ˜30% from the subthreshold maximum derived from the input-output function. Hippocampal LTD was induced by low-frequency stimulation (900 stimuli at 1 Hz for 15 min) at CA3-CA1 synapses.

GluA1, GluN2A, GluN2B = assay: Immunoblot and surface biotinylation of glutamate receptor subunits in hippocampus; format: in vivo; details: WT mice; Δ^9-THC for 7 days
Procedure: Western blot assay was conducted using specific antibodies (Table S1) to determine expressions of COX-2, glutamate receptor subunits, PSD-95, G-protein subunits, phosphoproteins, BACE1 and neprilysin in hippocampal tissue and/or in cultured cells as described previously (Chen et al., 2012). Surface biotinylation assays were performed to determine surface expression of glutamate receptor subunits in hippocampal slices as described previously (Fan et al., 2010).
Surface biotinylation assays were performed in hippocampal slices as described previously (Chen et al., 2006; Fan et al., 2010). Briefly, hippocampal slices were cut at thickness of 400 μm using a vibratome from mice that received vehicle or Δ^9-THC for 7 consecutive days, and then transferred to a six-well plate and incubated on ice for 1 h in carbogenated ACSF containing 500 μM Sulfo-NHS-SS-biotin (Thermo-Pierce, Rockford, Ill.). Collected tissue was then washed three times for 5 min with ice-cold ACSF containing 10 mM glycine, and was immediately homogenized in 800 μL ice-cold lysis buffer containing 20 mM Tris-HCl, pH 7.5, 1% Triton X-100, 50 mM NaCl, 1 mM EDTA, 0.1% sodium dodecyl sulfate, and a cocktail of protease inhibitors (Sigma, St. Louis, Mo.). After incubation on ice for 30 min, the homogenate was centrifuged at 18000 g at 4° C. for 10 min. Supernatants were collected. […]

COX-1 = assay: Hippocampal COX-1 expression in mice (immunoblot); format: in vivo; details: Δ^9-THC 10 mg/kg, detected 4 hrs after injection
synaptophysin (Syn) = assay: Hippocampal synaptophysin expression (immunoblot); format: in vivo, mice; details: Δ^9-THC for 7 days
locomotor activity = assay: Open field test (locomotor activity); format: in vivo, mice; details: Δ^9-THC 10 mg/kg; 30 min open field
Procedure: (§1) The classic Morris water maze and fear conditioning tests were performed to determine spatial and fear memory as described previously (Chen et al., 2012). The ‘open field’ test was conducted to detect the locomotor activity and the bar test was used to detect catalepsy (Egashira et al., 2007).
The ‘open field’ test was conducted using an automatic-recording open-field working station (MED Associates, Georgia, Vt.). During the test, mice were individually released into the center of the box immediately after injections of Δ^9-THC, NS398, Δ^9-THC+NS398, Celebrex or Celebrex+Δ^9-THC. Celebrex and NS398 were injected 30 min prior to Δ^9-THC injection and allowed to explore the field for 30 min and their behaviors were recorded by a photobeam-scanning system and a video camera simultaneously. Data were analyzed automatically by the computer-sampling system.

fear memory = assay: Fear conditioning test (contextual memory); format: in vivo, mice; details: 10 mg/kg once a day for 7 days; freezing 24 hrs after last injection
Procedure: as §1
Hippocampus-dependent contextual memory was determined using a fear-conditioning working-station (Coulbourn Instruments, Allentown, Pa.) and a one-trial protocol as describe previously (Chen et al., 2006a; 2006b). Mice were individually put into the shock chamber and allowed to freely explore the environment for 150 seconds. Immediately after this, a tone at 90 dB and 2,800 Hz (CS) was delivered for 30 seconds, and at the last 2 seconds a foot shock at 0.8 mA was delivered to the mice for 2 seconds (US). After the pairing of CS/US, mice were allowed to stay in the chamber for another 30 seconds and then returned to their home cages. Then the animals started receiving vehicle, Δ^9-THC (10 mg/kg), NS398 (10 mg/kg), Δ^9-THC+NS398 once a day for 7 days. Fear memory test was conducted 24 hours after the cessation of the last injections. For contextual conditioning, mice were individually put back into the chamber where they received the shock and the freezing response was recorded for 5 minutes with a sampling method at an interval of 5 seconds. […]

[1] = system: Akt, ERK, p38MAPK and NF-κB; assay: Phosphorylation of Akt, ERK, p38MAPK and NF-κB in hippocampal tissue; format: in vivo, mice; details: Δ^9-THC 10 mg/kg
PGE2 = PGE2 assay in hippocampal tissue (enzyme immunoassay); format: in vivo, mice; details: 10 mg/kg; detected 4 hrs after injection
Excerpt: PGE2 in hippocampal tissue was detected using PGE2 enzyme immunoassay kit (Cayman Chemical, Ann Arbor, Mich.) according to the procedure described by the manufacturer (Zhang and Chen, 2008).

Akt, ERK, and p38MAPK = assay: Phosphorylation of Akt, ERK and p38MAPK in NG108-15 cells; details: Δ^9-THC 30 μM

CCCCCc1cc(O)c2c(c1)OC(C)(C)[C@@H]1CCC(C)=C[C@@H]21 [Δ^9-THC, Δ^9-tetrahydrocannabinol]
expression of glutamate transporters (EAAT1, EAAT2, and EAAT3): down-regulated | hippocampal LTD after single exposure (hippocampal LTD): impaired | total and surface expressions of GluA1, GluN2A, GluN2B (immunoblot) (GluA1, GluN2A, GluN2B): significantly decreased | hippocampal COX-1 expression (COX-1): unaffected | synaptophysin expression (synaptophysin (Syn)): did not alter expression of synaptophysin (Syn) | locomotor depressive effect (locomotor activity): cataleptic and locomotor depressive effects | fear memory after repeated Δ^9-THC (fear memory): impaired fear memory | phosphorylation of Akt, ERK, p38MAPK and NF-κB in the hippocampus [1]: confirmed | hippocampal PGE2 production after cannabinoid injection (PGE2): elevated production of prostaglandin E2 (PGE2) | phosphorylation of Akt, ERK, and p38MAPK (Akt, ERK, and p38MAPK): induced phosphorylation of these signaling molecules
